From patent publication US11426367B2, “Methods of treating substance abuse” (Perception Neuroscience, Inc., priority 2018, dated 2022)
“Also recorded” adds a separate entry of the source.

Assays:
[1] = test system: development of drug tolerance to ethanol; details: tilt-plane test, Khanna et al., 1993; cited from earlier work
patients with depression = details: oral; Non Patent Literatures 15 and 16; cited from earlier work
Control C57/B6 mice = assay: Conditioned place preference test (dependence test) in control mice; details: control mice, 10 mg/kg
Method: 15-minute habituation was performed for 3 days. Then, 30-minute conditioning was performed on day 4 to day 10, and a behavioral evaluation test was performed on day 11. Saline was injected on day 5, day 7, and day 9. […] In each of the groups, the injection was performed three times, i.e., on day 4, day 6, and day 8. Saline means a group injected with saline.
The administration of an agent was performed by the same methods as the methods described in Example 2.
The place preference test was performed using a conditioned place preference test apparatus (BrainScienceIdea Co., Ltd., Osaka, Japan). The analysis of the results of the place preference test was performed by one-way analysis of variance (one-way ANOVA), followed by a least significant difference test (LSD test). Data are presented as the mean plus minus standard error of the mean (n=9 or 10 mice/group). *p<0.05 and **p<0.01 indicate significant differences as compared to a group injected with saline.

[2] = test system: medial forebrain bundle self-stimulation in rats; details: doses 5.6, 10 mg/kg, Hillhouse et al., 2014; cited from earlier work
Morphine Seizures = details: Not blocked by naloxone; Kolesnikov et al., 1997; cited from earlier work
[3] = test system: rewarding effects of morphine; details: Table 11, Suzuki et al., 2000; cited from earlier work
[4] = test system: medial forebrain bundle self-stimulation in rats; assay: Intracranial self-stimulation (ICSS), frequency-rate procedure; details: for M50, Test, mean log M50 frequency (SEM) / Threshold (T0), Test, mean log T0 frequency (SEM) / M50, Baseline, mean log M50 frequency (SEM) / Threshold (T0), Baseline, mean log T0 frequency (SEM): 10 rats
[5] = test system: morphine withdrawal signs in rats; assay: Naloxone-precipitated withdrawal from subchronic morphine; assay type: in vivo; details: 0.25 mg/kg i.p. before naloxone 1 mg/kg SC, morphine 10 mg/kg SC b.i.d.
Method: Forty (40) male Wistar rats served as test subjects in this study. Animals were pair housed with unrestricted access to rodent chow and water (SOP ROD.03.01, SOP ROD.04.01, SOP ROD.18). […] All experimental activity occurring during the animals' light cycle. All animal use procedures were performed in accordance with the principles of the Canadian Council on Animal Care (CCAC).
Forty (40) male Wistar rats were assigned to 5 groups of N=8 rats per group. Group A was dosed with saline vehicle (Sal; subcutaneous (SC) route) twice daily (approx. 08:00±1 h and 18:00±1 h) for 12 days. […] This treatment regimen was designed to induce opioid dependence (Erami et al., 2012). […] On days 9 and 12, rats were tested for naloxone precipitated withdrawal. According to a cross-over design (see Table 4: Treatment Groups), all rats in each group received either acute saline, or naloxone hydrochloride (1 mg/kg; dose volume 2 ml/kg) injection by the SC route, 5 minutes prior to behavioral testing. […] Lofexidine doses are based on literature values (e.g. Shearman et al., 1979). Immediately after vehicle or naloxone injection, rats were transferred to activity chambers for 30 minutes where the animals were visually assessed for somatic signs associated with opioid withdrawal (e.g. writhes, chews, ptosis, WDS, shakes, tremor, penile grooming, body weight change; see Higgins and Sellers, 1994). Simultaneously, the activity pattern (distance travelled, rearing) of each rat was automatically recorded.
Locomotor activity. Spontaneous activity in the rats was measured with the automated Med Associates activity test chamber for 30 minutes with 10-minute time bins. The tracking arena was 17″W×17″L×12″H, sensor bars are secured 1″ above the floor to track distance travelled, and a second set of sensor bars are placed ˜5″ above the floor to measure vertical movement and rearing activity. The parameters set on the tracking software were as follows: resolution—50 milliseconds (ms), box size—4 beams, resting delay—500 ms, and ambulatory trigger—2 (SOP ROD.25). […]

[6] = 3 mg/kg i.p. 2 hours prior to test session
[7] = 10 mg/kg i.p. 2 hours prior to test session
[8] = 30 mg/kg i.p. 2 hours prior to test session
[9] = baseline session before dosing on the 3 mg/kg test day
[10] = baseline session before dosing on the 10 mg/kg test day
[11] = baseline session before dosing on the 30 mg/kg test day

For CNC1(c2ccccc2Cl)CCCCC1=O (racemic) [RS(+/−)-ketamine], the “Ethanol Tolerance, dose blocking development of tolerance” value [1] is listed as 1 - tilt-plane test mg/kg, the “effective oral doses in patients with depression” value (patients with depression) is listed as 0.5 mg/kg and the “CPP score (conditioned place preference test)” value (Control C57/B6 mice) is listed as “significantly increased the CPP score”. For the same molecule, the “ICSS, anhedonia” value [2] was 5.6, 10 anhedonia, the “Morphine Seizures, dose” value (Morphine Seizures) was 0.3 mg/kg and the “Morphine CPP, dose blocking the rewarding effects of morphine” value [3] was 10 mg/kg.
In the case of COC(=O)[C@H]1[C@@H](OC(=O)c2ccccc2)C[C@@H]2CC[C@H]1N2C [Cocaine, cocaine], the “ICSS frequency-rate response curve” value ([4]; rats, 10 mg/kg) is reported as “shifts the frequency curve to the left”.
In the case of N[C@@]1(c2ccccc2Cl)CCC[C@@H](O)C1=O [R-hydroxynorketamine], the “M50, Test, mean log M50 frequency (SEM)” value [4, 6] is reported as 2.00 (0.01) log/Hz, the “Threshold (T0), Test, mean log T0 frequency (SEM)” value [4, 6] is reported as 1.92 (0.02) log/Hz and the “M50, Test, mean log M50 frequency (SEM)” value [4, 7] is reported as 2.00 (0.01) log/Hz. For the same molecule, the “Threshold (T0), Test, mean log T0 frequency (SEM)” value [4, 7] was 1.90 (0.02) log/Hz, the “M50, Test, mean log M50 frequency (SEM)” value [4, 8] was 1.99 (0.02) log/Hz and the “Threshold (T0), Test, mean log T0 frequency (SEM)” value [4, 8] was 1.91 (0.03) log/Hz. The “M50, Baseline, mean log M50 frequency (SEM)” value [4, 9] was 2.00 (0.02) log/Hz, the “Threshold (T0), Baseline, mean log T0 frequency (SEM)” value [4, 9] was 1.89 (0.02) log/Hz and the “M50, Baseline, mean log M50 frequency (SEM)” value [4, 10] was 1.98 (0.01) log/Hz. For the same molecule, the “Threshold (T0), Baseline, mean log T0 frequency (SEM)” value [4, 10] was 1.89 (0.02) log/Hz, the “M50, Baseline, mean log M50 frequency (SEM)” value [4, 11] was 1.99 (0.02) log/Hz and the “Threshold (T0), Baseline, mean log T0 frequency (SEM)” value [4, 11] was 1.90 (0.02) log/Hz. The “ICSS frequency-rate response curve” value ([4]; rats, 3, 10 or 30 mg/kg i.p. 2 hours prior to test session, vs saline vehicle) was “did not alter the frequency-response function”.
With CC(Oc1c(Cl)cccc1Cl)C1=NCCN1 (stereo not drawn) [lofexidine, Lofexidine] the “overall morphine withdrawal scores (naloxone-precipitated withdrawal signs)” value [5] was “significantly attenuated the naloxone-induced withdrawal signs; also recorded: effective”.
